# Assay results published in patent publication US20020137929A1, “1 - (3-heterocyclylphenyl) isothiourea, -isourea, -guanidine and -amidine herbicidal agents” (Intellectual Property Department, BASF Aktiengesellschaft, priority 1998, published 2002).
# How the values were obtained:
# CASOB (Sicklepod) = experiment: Postemergence herbicidal evaluation; assay type: in vivo, Cassia obtusifolia; settings: for Herbicidal rating CASOB: postemergence
# In short: (§1)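 Young plants, roughly two weeks from seeding, receive the active ingredient as a sprayed dispersion (acetone/water 50/50, 0.5% TWEEN 20) at 40 psi. Doses span about 0.0156 to 0.500 kg/ha. A visual score from 0 to 9 compares treated with control plants four to five weeks on.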
# GALAP (Galium) = experiment: Postemergence herbicidal evaluation; assay type: in vivo, Galium aparine; settings: for Herbicidal rating GALAP: postemergence
# In short: as §1
# ZEAMX (Corn, Field) = experiment: Postemergence herbicidal evaluation; assay type: in vivo, Zea mays; settings: for Herbicidal rating ZEAMX: postemergence
# In short: as §1
# [1] = tested on: ECHORC (Watergrass (Calif.)); experiment: Preemergence weed control under flooded paddy conditions; assay type: in vivo, Echinochloa oryzoides; settings: rated 3-4 weeks after treatment
# In short: (§2)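 Ratings on a 0-9 visual scale cover stand, vigor, malformation, size, chlorosis and overall appearance relative to a control, taken three to four weeks post-treatment. Application was into flood water over freshly sown silt loam at roughly 0.0313 to 0.500 kg/ha.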
# CYPIR (Rice Flatsedge) = experiment: as above; assay type: in vivo, Cyperus iria; settings: rated 3-4 weeks after treatment
# In short: as §2
# CYPSE (Flatsedge) [2] = experiment: as above; assay type: in vivo, Cyperus serotinus; settings: rated 3-4 weeks after treatment
# In short: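 Flooded-pot preemergence screen with silt loam and seeds in the upper 0.5 cm. Dose about 0.0313 to 0.500 kg/ha, delivered into flood water; visual 0-9 score after 3 to 4 weeks.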
# [3] = tested on: ECHORC (Watergrass (Calif.)); experiment: Postemergence weed control under flooded paddy conditions; assay type: in vivo, Echinochloa oryzoides; settings: postemergence weeds
# In short: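 Flood-water application, about 0.0313–0.500 kg/ha a.i. in aqueous/acetone 50/50 v/v; water depth 1.5–3 cm throughout. Weeds 3–5 cm, rice 1.5–2.5 leaf. Greenhouse; 0–9 visual rating vs control at 3–4 wk.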
# CYPSE (Flatsedge) [4] = experiment: as above; assay type: in vivo, Cyperus serotinus; settings: postemergence weeds
# Source text: Results of herbicide evaluation are expressed on a rating scale (0-9). The scale is based upon a visual observation of plant stand, vigor, malformation, size, chlorosis and overall plant appearance as compared with a control.
# Plastic containers containing weeds which are 3 to 5 cm tall and rice seedlings at the 1.5 to 2.5 leaf stage are flooded with water. The water is maintained at 1.5 to 3 cm above the soil surface for the duration of the experiment. Test compounds are applied as aqueous/ acetone mixtures 50/50 v/v directly into the flood water to provide the equivalent of about 0.0313 to 0.500 kg/ha of active ingredient. The treated containers are placed on greenhouse benches and cared for in accordance with conventional greenhouse procedures. Three to four weeks after treatment, the test is terminated and each container is examined and herbicidal effect rated according to the rating system provided in Example 37. The compounds evaluated are reported by compound number given in Example 37.
# [5] = rate 0.0313 kg/ha, 3-4 weeks after treatment
# [6] = rate 0.0625 kg/ha, 3-4 weeks after treatment
# [7] = rate 0.1250 kg/ha, 3-4 weeks after treatment
# [8] = rate 0.2500 kg/ha, 3-4 weeks after treatment
# [9] = Rate 0.0313 kg/ha, rated 3 to 4 weeks after treatment
# [10] = Rate 0.0625 kg/ha, rated 3 to 4 weeks after treatment
# [11] = Rate 0.1250 kg/ha, rated 3 to 4 weeks after treatment
# [12] = Rate 0.2500 kg/ha, rated 3 to 4 weeks after treatment
# [13] = Rate 0.5000 kg/ha, rated 3 to 4 weeks after treatment
compound,measurement,setting,value
"2-{{2-Chloro-5-[3,6-dihydro-3-methyl-2,6-dioxo-4-(trifluoromethyl)-1(2H)-pyrimidinyl]-4-fluoro-phenyl}imino}-4-oxo-3,5-thiazolidenediacetic acid, 3-ethyl (2-propynyl) ester, (2:1) mixture with di-2-propynyl ester [Compound 58]",Postemergence herbicidal rating CASOB,CASOB (Sicklepod); Rate 0.0158 kg/ha,0.0
same,Postemergence herbicidal rating CASOB,CASOB (Sicklepod); Rate 0.0315 kg/ha,2.0
same,Postemergence herbicidal rating CASOB,CASOB (Sicklepod); Rate 0.0630 kg/ha,3.0
same,Postemergence herbicidal rating GALAP,GALAP (Galium); Rate 0.0158 kg/ha,1.0
same,Postemergence herbicidal rating GALAP,GALAP (Galium); Rate 0.0315 kg/ha,3.0
same,Postemergence herbicidal rating GALAP,GALAP (Galium); Rate 0.0630 kg/ha,9.0
same,Postemergence herbicidal rating ZEAMX,"ZEAMX (Corn, Field); Rate 0.0158 kg/ha",7.0
same,Postemergence herbicidal rating ZEAMX,"ZEAMX (Corn, Field); Rate 0.0315 kg/ha",7.0
same,Postemergence herbicidal rating ZEAMX,"ZEAMX (Corn, Field); Rate 0.0630 kg/ha",8.0
same,ECHORC herbicidal effect rating,[1]; 0.0313 kg/ha,7.0
same,Herbicidal rating ECHORC,[1]; 0.0625 kg/ha,7.0
same,Herbicidal rating ECHORC,[1]; 0.1250 kg/ha,7.0
same,Herbicidal rating ECHORC,[1]; 0.2500 kg/ha,9.0
same,CYPIR herbicidal effect rating,CYPIR (Rice Flatsedge); 0.0313 kg/ha,0.0
same,Herbicidal rating CYPIR,CYPIR (Rice Flatsedge); 0.0625 kg/ha,0.0
same,Herbicidal rating CYPIR,CYPIR (Rice Flatsedge); 0.1250 kg/ha,2.0
same,Herbicidal rating CYPIR,CYPIR (Rice Flatsedge); 0.2500 kg/ha,3.0
same,CYPSE herbicidal effect rating,CYPSE (Flatsedge) [2]; 0.0313 kg/ha,5.0
same,Herbicidal rating CYPSE,CYPSE (Flatsedge) [2]; 0.0625 kg/ha,5.0
same,Herbicidal rating CYPSE,CYPSE (Flatsedge) [2]; 0.1250 kg/ha,5.0
same,Herbicidal rating CYPSE,CYPSE (Flatsedge) [2]; 0.2500 kg/ha,5.0
same,Herbicidal rating ECHORC,[3]; [5],7.0
same,Herbicidal rating ECHORC,[3]; [6],7.0
same,Herbicidal rating ECHORC,[3]; [7],7.0
same,Herbicidal rating ECHORC,[3]; [8],9.0
same,Herbicidal rating CYPSE,CYPSE (Flatsedge) [4]; [5],5.0
same,Herbicidal rating CYPSE,CYPSE (Flatsedge) [4]; [6],5.0
same,Herbicidal rating CYPSE,CYPSE (Flatsedge) [4]; [7],5.0
same,Herbicidal rating CYPSE,CYPSE (Flatsedge) [4]; [8],5.0
"C=CCN1C(=O)C(CC(=O)NS(=O)(=O)c2ccccc2)SC1=Nc1cc(-n2c(=O)cc(C(F)(F)F)n(C)c2=O)c(F)cc1Cl (centres unmarked) [Compound 101, 3-Allyl-2-{{2-chloro-5-[3,6-dihydro-3-methyl-2,6-dioxo-4-(trifluoromethyl)-1(2H)-pyrimidinyl]-4-fluorophenyl}imino}-4-oxo-N-(phenylsulfonyl)-5-thiazolidineacetamide]",Herbicidal rating CASOB,CASOB (Sicklepod); rate 0.0156 kg/ha,0.0
same,Herbicidal rating CASOB,CASOB (Sicklepod); rate 0.0313 kg/ha,0.0
same,Herbicidal rating CASOB,CASOB (Sicklepod); rate 0.0625 kg/ha,2.0
same,Herbicidal rating CASOB,CASOB (Sicklepod); rate 0.1250 kg/ha,3.0
same,Herbicidal rating GALAP,GALAP (Galium); rate 0.0156 kg/ha,0.0
same,Herbicidal rating GALAP,GALAP (Galium); rate 0.0313 kg/ha,1.0
same,Herbicidal rating GALAP,GALAP (Galium); rate 0.0625 kg/ha,1.0
same,Herbicidal rating GALAP,GALAP (Galium); rate 0.1250 kg/ha,2.0
same,Herbicidal rating ZEAMX,"ZEAMX (Corn, Field); rate 0.0156 kg/ha",4.5
same,Herbicidal rating ZEAMX,"ZEAMX (Corn, Field); rate 0.0313 kg/ha",4.5
same,Herbicidal rating ZEAMX,"ZEAMX (Corn, Field); rate 0.0625 kg/ha",5.0
same,Herbicidal rating ZEAMX,"ZEAMX (Corn, Field); rate 0.1250 kg/ha",5.0
same,ECHORC herbicidal effect rating,[1]; 0.0313 kg/ha,0.0
same,ECHORC herbicidal effect rating,[1]; 0.0625 kg/ha,0.0
same,ECHORC herbicidal effect rating,[1]; 0.1250 kg/ha,0.0
same,ECHORC herbicidal effect rating,[1]; 0.2500 kg/ha,0.0
same,ECHORC herbicidal effect rating,[1]; 0.5000 kg/ha,0.0
same,CYPIR herbicidal effect rating,CYPIR (Rice Flatsedge); 0.0313 kg/ha,0.0
same,CYPIR herbicidal effect rating,CYPIR (Rice Flatsedge); 0.0625 kg/ha,0.0
same,CYPIR herbicidal effect rating,CYPIR (Rice Flatsedge); 0.1250 kg/ha,0.0
same,CYPIR herbicidal effect rating,CYPIR (Rice Flatsedge); 0.2500 kg/ha,3.0
same,CYPIR herbicidal effect rating,CYPIR (Rice Flatsedge); 0.5000 kg/ha,4.0
same,CYPSE herbicidal effect rating,CYPSE (Flatsedge) [2]; 0.0313 kg/ha,0.0
same,CYPSE herbicidal effect rating,CYPSE (Flatsedge) [2]; 0.0625 kg/ha,0.0
same,CYPSE herbicidal effect rating,CYPSE (Flatsedge) [2]; 0.1250 kg/ha,0.0
same,CYPSE herbicidal effect rating,CYPSE (Flatsedge) [2]; 0.2500 kg/ha,0.0
same,CYPSE herbicidal effect rating,CYPSE (Flatsedge) [2]; 0.5000 kg/ha,0.0
same,Herbicidal rating ECHORC,[3]; [9],0.0
same,Herbicidal rating ECHORC,[3]; [10],0.0
same,Herbicidal rating ECHORC,[3]; [11],0.0
same,Herbicidal rating ECHORC,[3]; [12],0.0
same,Herbicidal rating ECHORC,[3]; [13],0.0
same,Herbicidal rating CYPSE,CYPSE (Flatsedge) [4]; [9],0.0
same,Herbicidal rating CYPSE,CYPSE (Flatsedge) [4]; [10],0.0
same,Herbicidal rating CYPSE,CYPSE (Flatsedge) [4]; [11],0.0
same,Herbicidal rating CYPSE,CYPSE (Flatsedge) [4]; [12],0.0
same,Herbicidal rating CYPSE,CYPSE (Flatsedge) [4]; [13],0.0
"CCOC(=O)CN1C(=O)C(CC(=O)OC(C)C)SC1=Nc1cc(-n2c(=O)cc(C(F)(F)F)n(C)c2=O)c(F)cc1Cl (centres unmarked) [Compound 55, 2-{{2-Chloro-5-[3,6-dihydro-3-methyl-2,6-dioxo-4-(trifluoromethyl)-1(2H)-pyrimidinyl]-4-fluoro-phenyl}imino}-4-oxo-3,5-thiazolidinediacetic acid, 3-ethyl isopropyl ester]",Postemergence herbicidal rating CASOB,CASOB (Sicklepod); Rate 0.0158 kg/ha,1.0
same,Postemergence herbicidal rating CASOB,CASOB (Sicklepod); Rate 0.0313 kg/ha,7.7
same,Postemergence herbicidal rating CASOB,CASOB (Sicklepod); Rate 0.0625 kg/ha,9.0
same,Postemergence herbicidal rating CASOB,CASOB (Sicklepod); Rate 0.1250 kg/ha,8.0
same,Postemergence herbicidal rating CASOB,CASOB (Sicklepod); Rate 0.2500 kg/ha,9.0
same,Postemergence herbicidal rating GALAP,GALAP (Galium); Rate 0.0158 kg/ha,6.0
same,Postemergence herbicidal rating GALAP,GALAP (Galium); Rate 0.0313 kg/ha,3.3
same,Postemergence herbicidal rating GALAP,GALAP (Galium); Rate 0.0625 kg/ha,7.0
same,Postemergence herbicidal rating GALAP,GALAP (Galium); Rate 0.1250 kg/ha,9.0
same,Postemergence herbicidal rating GALAP,GALAP (Galium); Rate 0.2500 kg/ha,9.0
same,Postemergence herbicidal rating ZEAMX,"ZEAMX (Corn, Field); Rate 0.0158 kg/ha",7.5
same,Postemergence herbicidal rating ZEAMX,"ZEAMX (Corn, Field); Rate 0.0313 kg/ha",8.3
same,Postemergence herbicidal rating ZEAMX,"ZEAMX (Corn, Field); Rate 0.0625 kg/ha",8.7
same,Postemergence herbicidal rating ZEAMX,"ZEAMX (Corn, Field); Rate 0.1250 kg/ha",8.8
same,Postemergence herbicidal rating ZEAMX,"ZEAMX (Corn, Field); Rate 0.2500 kg/ha",9.0
same,Herbicidal rating ECHORC,[1]; 0.0313 kg/ha,7.0
same,Herbicidal rating ECHORC,[1]; 0.0625 kg/ha,7.0
same,Herbicidal rating ECHORC,[1]; 0.1250 kg/ha,7.0
same,Herbicidal rating ECHORC,[1]; 0.2500 kg/ha,7.0
same,Herbicidal rating CYPIR,CYPIR (Rice Flatsedge); 0.0313 kg/ha,9.0
same,Herbicidal rating CYPIR,CYPIR (Rice Flatsedge); 0.0625 kg/ha,9.0
same,Herbicidal rating CYPIR,CYPIR (Rice Flatsedge); 0.1250 kg/ha,9.0
same,Herbicidal rating CYPIR,CYPIR (Rice Flatsedge); 0.2500 kg/ha,9.0
same,Herbicidal rating CYPSE,CYPSE (Flatsedge) [2]; 0.0313 kg/ha,0.0
same,Herbicidal rating CYPSE,CYPSE (Flatsedge) [2]; 0.0625 kg/ha,0.0
same,Herbicidal rating CYPSE,CYPSE (Flatsedge) [2]; 0.1250 kg/ha,0.0
same,Herbicidal rating CYPSE,CYPSE (Flatsedge) [2]; 0.2500 kg/ha,0.0
same,Herbicidal rating ECHORC,[3]; [5],7.0
same,Herbicidal rating ECHORC,[3]; [6],7.0
same,Herbicidal rating ECHORC,[3]; [7],7.0
same,Herbicidal rating ECHORC,[3]; [8],7.0
same,Herbicidal rating CYPSE,CYPSE (Flatsedge) [4]; [5],0.0
same,Herbicidal rating CYPSE,CYPSE (Flatsedge) [4]; [6],0.0
same,Herbicidal rating CYPSE,CYPSE (Flatsedge) [4]; [7],0.0
same,Herbicidal rating CYPSE,CYPSE (Flatsedge) [4]; [8],0.0
